Measured values published in patent publication US8952157B2, “Apoptosis-inducing agents for the treatment of cancer and immune and autoimmune diseases” (AbbVie Inc., priority 2008, dated 2015).
Like-named read-outs stand apart in the source and are kept apart here.

Biological target: GST-Bcl-2 (Homo sapiens (Human), UniProt P10415)
Assay: Time Resolved-Fluorescence Resonance Energy Transfer (TR-FRET) Bcl-2 binding assay
Method in brief: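 Ki values derived from TR-FRET displacement of F-Bak peptide from GST-Bcl-2, detected with Tb-labelled anti-GST antibody (ex 340, em 520/495 nm). Compound dilution series started at 50 μM (2× starting concentration); room-temperature incubation 3 hours.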

[1] = GST-Bcl-2 1 nM, F-Bak peptide probe 100 nM, Tb-anti-GST antibody 1 nM, Ki by Wang's equation

Chain of GST-Bcl-2 (P10415 whole entry): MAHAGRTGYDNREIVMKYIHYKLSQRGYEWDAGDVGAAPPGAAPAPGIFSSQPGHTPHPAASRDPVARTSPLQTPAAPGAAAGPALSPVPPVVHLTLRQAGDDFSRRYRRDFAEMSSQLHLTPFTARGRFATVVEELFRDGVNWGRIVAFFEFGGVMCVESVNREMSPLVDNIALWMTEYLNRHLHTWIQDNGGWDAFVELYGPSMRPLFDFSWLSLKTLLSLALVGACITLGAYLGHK

## CN1CCN(Nc2ccc(S(=O)(=O)NC(=O)c3ccc(N4CCN(CC5=C(c6ccc(Cl)cc6)CC(C)(C)CC5)CC4)cc3Oc3cccc(Cl)c3)cc2[N+](=O)[O-])CC1 [Example 199, 2-(3-chlorophenoxy)-4-(4-{[2-(4-chlorophenyl)-4,4-dimethylcyclohex-1-en-1-yl]methyl}piperazin-1-yl)-N-({4-[(4-methylpiperazin-1-yl)amino]-3-nitrophenyl}sulfonyl)benzamide]
[1]
  Ki: 0.244 nM

## CC1(C)CCC(CN2CCN(c3ccc(C(=O)NS(=O)(=O)c4ccc(NCC5CCOCC5)c([N+](=O)[O-])c4)c(Oc4cc(NC(=O)OC(C)(C)C)nc(NC(=O)OC(C)(C)C)c4)c3)CC2)=C(c2ccc(Cl)cc2)C1 [Example 373, 4-(4-{[2-(4-chlorophenyl)-4,4-dimethylcyclohex-1-en-1-yl]methyl}piperazin-1-yl)-2-[(2,6-Bis-tert-butoxycarbonylamino-pyridin-4-yl)oxy]-N-({3-nitro-4-[(tetrahydro-2H-pyran-4-ylmethyl)amino]phenyl}sulfonyl)benzamide]
[1]
  Ki: 1200 nM

## CC1(C)CCC(CN2CCN(c3ccc(C(=O)NS(=O)(=O)c4ccc(N[C@H]5CC[C@H](N6CCOCC6)CC5)c([N+](=O)[O-])c4)c(Oc4cccc5c4CCNC5=O)c3)CC2)=C(c2ccc(Cl)cc2)C1 [Example 304, Trans-4-(4-{[2-(4-chlorophenyl)-4,4-dimethylcyclohex-1-en-1-yl]methyl}piperazin-1-yl)-N-({4-[(4-morpholin-4-ylcyclohexyl)amino]-3-nitrophenyl}sulfonyl)-2-[(1-oxo-1,2,3,4-tetrahydroisoquinolin-5-yl)oxy]benzamide]
  Ki: 0.822 nM

## CC1(C)CCC(CN2CCN(c3ccc(C(=O)NS(=O)(=O)c4ccc(NCCCN5CCOCC5)c([N+](=O)[O-])c4)c(Oc4ccccc4Cl)c3)CC2)=C(c2ccc(Cl)cc2)C1 [Example 116, 2-(2-chlorophenoxy)-4-(4-{[2-(4-chlorophenyl)-4,4-dimethylcyclohex-1-en-1-yl]methyl}piperazin-1-yl)-N-({4-[(3-morpholin-4-ylpropyl)amino]-3-nitrophenyl}sulfonyl)benzamide]
[1]
  Ki: 0.123 nM

## CN1CCN(Nc2ccc(S(=O)(=O)NC(=O)c3ccc(N4CCN(CC5=C(c6ccc(Cl)cc6)CC(C)(C)CC5)CC4)cc3Oc3ccc4[nH]cc(CCN)c4c3)cc2[N+](=O)[O-])CC1 [Example 300, 2-{[3-(2-aminoethyl)-1H-indol-5-yl]oxy}-4-(4-{[2-(4-chlorophenyl)-4,4-dimethylcyclohex-1-en-1-yl]methyl}piperazin-1-yl)-N-({4-[(4-methylpiperazin-1-yl)amino]-3-nitrophenyl}sulfonyl)benzamide]
[1]
  Ki: 13.7 nM

## CN1CCC(Nc2ccc(S(=O)(=O)NC(=O)c3ccc(N4CCN(CC5=C(c6ccc(Cl)cc6)CC(C)(C)CC5)CC4)cc3OCc3csc(N)n3)cc2[N+](=O)[O-])CC1 [Example 223, 2-[(2-amino-1,3-thiazol-4-yl)methoxy]-4-(4-{[2-(4-chlorophenyl)-4,4-dimethylcyclohex-1-en-1-yl]methyl}piperazin-1-yl)-N-({4-[(1-methylpiperidin-4-yl)amino]-3-nitrophenyl}sulfonyl)benzamide]
[1]
  Ki: 10.9 nM

## CN(C)CC(=O)N1CCC(F)(COc2ncc(S(=O)(=O)NC(=O)c3ccc(N4CCN(CC5=C(c6ccc(Cl)cc6)CC(C)(C)CC5)CC4)cc3Oc3cnc(N)c(Cl)c3)cc2Cl)CC1 [Example 393, 2-[(6-amino-5-chloropyridin-3-yl)oxy]-N-[(5-chloro-6-{[1-(N,N-dimethylglycyl)-4-fluoropiperidin-4-yl]methoxy}pyridin-3-yl)sulfonyl]-4-(4-{[2-(4-chlorophenyl)-4,4-dimethylcyclohex-1-en-1-yl]methyl}piperazin-1-yl)benzamide]
[1]
  Ki: < 0.01 nM

## CC1(C)CCC(CN2CCN(c3ccc(C(=O)NS(=O)(=O)c4cnc(OCC5CCOCC5)c(Cl)c4)c(Oc4cc5cc[nH]c5cc4F)c3)CC2)=C(c2ccc(Cl)cc2)C1 [Example 303, 4-(4-{[2-(4-chlorophenyl)-4,4-dimethylcyclohex-1-en-1-yl]methyl}piperazin-1-yl)-N-{[5-chloro-6-(tetrahydro-2H-pyran-4-ylmethoxy)pyridin-3-yl]sulfonyl}-2-[(6-fluoro-1H-indol-5-yl)oxy]benzamide]
[1]
  Ki: 0.092 nM

## CC(=O)Nc1cccc(Oc2cc(N3CCN(CC4=C(c5ccc(Cl)cc5)CC(C)(C)CC4)CC3)ccc2C(=O)NS(=O)(=O)c2ccc(NC3CCN(C4CCOCC4)CC3)c([N+](=O)[O-])c2)c1 [Example 225, 2-[3-(acetylamino)phenoxy]-4-(4-{[2-(4-chlorophenyl)-4,4-dimethylcyclohex-1-en-1-yl]methyl}piperazin-1-yl)-N-({3-nitro-4-[(1-tetrahydro-2H-pyran-4-ylpiperidin-4-yl)amino]phenyl}sulfonyl)benzamide]
[1]
  Ki: 3.28 nM

## CC1(C)CCC(CN2CCN(c3ccc(C(=O)NS(=O)(=O)c4ccc(OCC5(F)CCOCC5)c([N+](=O)[O-])c4)c(Oc4cnc(N)c(Cl)c4)c3)CC2)=C(c2ccc(Cl)cc2)C1 [Example 330, 2-[(6-amino-5-chloropyridin-3-yl)oxy]-4-(4-{[2-(4-chlorophenyl)-4,4-dimethylcyclohex-1-en-1-yl]methyl}piperazin-1-yl)-N-({4-[(4-fluorotetrahydro-2H-pyran-4-yl)methoxy]-3-nitrophenyl}sulfonyl)benzamide]
[1]
  Ki: < 0.01 nM

## C#Cc1cc(S(=O)(=O)NC(=O)c2ccc(N3CCN(CC4=C(c5ccc(Cl)cc5)CC(C)(C)OC4)CC3)cc2Oc2cc3cc[nH]c3cc2F)cnc1OCC1CCOCC1 [Example 323, 4-(4-{[4-(4-chlorophenyl)-6,6-dimethyl-5,6-dihydro-2H-pyran-3-yl]methyl}piperazin-1-yl)-N-{[5-ethynyl-6-(tetrahydro-2H-pyran-4-ylmethoxy)pyridin-3-yl]sulfonyl}-2-[(6-fluoro-1H-indol-5-yl)oxy]benzamide]
[1]
  Ki: 3.48 nM

## CN(C)CCCNc1ccc(S(=O)(=O)NC(=O)c2ccc(N3CCN(Cc4ccccc4-c4ccc(Cl)cc4)CC3)cc2Oc2cccc(OCc3ccccc3)c2)cc1[N+](=O)[O-] [Example 92, 2-(3-(benzyloxy)phenoxy)-4-(4-((4′-chloro-1,1′-biphenyl-2-yl)methyl)piperazin-1-yl)-N-((4-((3-(dimethylamino)propyl)amino)-3-nitrophenyl)sulfonyl)benzamide]
[1]
  Ki: 2.57 nM

## O=C(NS(=O)(=O)c1ccc(NCCCN2CCOCC2)c([N+](=O)[O-])c1)c1ccc(N2CCN(Cc3ccccc3-c3ccc(Cl)cc3)CC2)cc1Oc1cccc(-c2ccncc2)c1 [Example 98, 4-(4-((4′-chloro-1,1′-biphenyl-2-yl)methyl)piperazin-1-yl)-N-((4-((3-morpholin-4-ylpropyl)amino)-3-nitrophenyl)sulfonyl)-2-(3-pyridin-4-ylphenoxy)benzamide]
[1]
  Ki: 0.959 nM

## CN1CCC(Nc2ccc(S(=O)(=O)NC(=O)c3ccc(N4CCN(CC5=C(c6ccc(Cl)cc6)CC(C)(C)CC5)CC4)cc3Oc3cc(F)cc4[nH]ccc34)cc2[N+](=O)[O-])CC1 [Example 209, 4-(4-{[2-(4-chlorophenyl)-4,4-dimethylcyclohex-1-en-1-yl]methyl}piperazin-1-yl)-2-[(6-fluoro-1H-indol-4-yl)oxy]-N-({4-[(1-methylpiperidin-4-yl)amino]-3-nitrophenyl}sulfonyl)benzamide]
[1]
  Ki: < 0.01 nM

## C#Cc1cc(S(=O)(=O)NC(=O)c2ccc(N3CCN(CC4=C(c5ccc(Cl)cc5)CC(C)(C)CC4)CC3)cc2Oc2cc3cc[nH]c3cc2F)cnc1OCC1CCOCC1 [Example 322, 4-(4-{[2-(4-chlorophenyl)-4,4-dimethylcyclohex-1-en-1-yl]methyl}piperazin-1-yl)-N-{[5-ethynyl-6-(tetrahydro-2H-pyran-4-ylmethoxy)pyridin-3-yl]sulfonyl}-2-[(6-fluoro-1H-indol-5-yl)oxy]benzamide]
[1]
  Ki: 4.53 nM

## CC1(C)CCC(CN2CCN(c3ccc(C(=O)NS(=O)(=O)c4ccc(OCC5CCOCC5)c([N+](=O)[O-])c4)c(Oc4cnc(N)c(Cl)c4)c3)CC2)=C(c2ccc(Cl)cc2)C1 [Example 381, 2-[(6-amino-5-chloropyridin-3-yl)oxy]-4-(4-{[2-(4-chlorophenyl)-4,4-dimethylcyclohex-1-en-1-yl]methyl}piperazin-1-yl)-N-{[3-nitro-4-(tetrahydro-2H-pyran-4-ylmethoxy)phenyl]sulfonyl}benzamide]
[1]
  Ki: 0.02 nM

## CN(C)CCCNc1ccc(S(=O)(=O)NC(=O)c2ccc(N3CCN(CC4=C(c5ccc(Cl)cc5)CC(C)(C)CC4)CC3)cc2Oc2cccc3[nH]cc(CN4CCN(C)CC4)c23)cc1[N+](=O)[O-] [Example 213, 4-(4-{[2-(4-chlorophenyl)-4,4-dimethylcyclohex-1-en-1-yl]methyl}piperazin-1-yl)-N-[(4-{[3-(dimethylamino)propyl]amino}-3-nitrophenyl)sulfonyl]-2-({3-[(4-methylpiperazin-1-yl)methyl]-1H-indol-4-yl}oxy)benzamide]
[1]
  Ki: 0.031 nM

## O=C(NS(=O)(=O)c1ccc(NCC2CCOCC2)c([N+](=O)[O-])c1)c1ccc(N2CCN(Cc3ccccc3-c3ccc(Cl)cc3)CC2)cc1Oc1cccc(Cl)c1 [Example 6, 4-(4-((4′-chloro-1,1′-biphenyl-2-yl)methyl)piperazin-1-yl)-2-(3-chlorophenoxy)-N-((3-nitro-4-((tetrahydro-2H-pyran-4-ylmethyl)amino)phenyl)sulfonyl)benzamide]
[1]
  Ki: 0.787 nM

## CC1(C)CCC(CN2CCN(c3ccc(C(=O)NS(=O)(=O)c4ccc(NCC5CCOCC5)c([N+](=O)[O-])c4)c(Oc4cc(N)nc(N)c4)c3)CC2)=C(c2ccc(Cl)cc2)C1 [Example 380, 4-(4-{[2-(4-chlorophenyl)-4,4-dimethylcyclohex-1-en-1-yl]methyl}piperazin-1-yl)-2-[(2,6-diaminopyridin-4-yl)oxy]-N-({3-nitro-4-[(tetrahydro-2H-pyran-4-ylmethyl)amino]phenyl}sulfonyl)benzamide]
[1]
  Ki: 8.27 nM
